Assay results: ChEMBL document CHEMBL1201862, “PubChem BioAssay data set” (2004)
Active and inactive are the calls of the source.

Assays:
[1] = viability loss in THP-1 monocytes – THP-1 cells, cytotoxicity control for Vif-APOBEC3G degradation inhibitor project, dose response (AID 1117359); format: functional; details: THP-1
[2] = Trypanosoma cruzi growth suppression in host cells – NIH3T3 host cells, beta-gal luminescence, confirmation (AID 2044); format: functional, cell-based;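 also: intracellular parasites grown in NIH/3T3 mouse fibroblasts as host cells; luminescent beta-galactosidase reporter signal from transgenic T. cruzi replicating inside host cells; inhibitors lower the luminescence signal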
[3] = NIH3T3 cell viability loss – ATP luminescence, mouse fibroblasts, counter-screen, dose response (AID 2010); format: functional, cell-based;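 also: cells exposed to compound for about 90 hours before reading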
[4] = molecular target: T1, Lytic switch protein BZLF1 (Epstein-Barr virus (strain B95-8) (HHV-4) (Human herpesvirus 4), UniProt P03206); experiment: inhibition of BZLF1 ZTA DNA binding – biochemical, fluorescence polarization, Epstein-Barr virus, 1536-well, counter-screen for EBNA-1 inhibitor project, dose response (AID 2377); design: species or system human gammaherpesvirus 4;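 also: fluorescence polarization of Cy5-labelled ZRE DNA probe bound by purified Zta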
T1 sequence (P03206 whole entry): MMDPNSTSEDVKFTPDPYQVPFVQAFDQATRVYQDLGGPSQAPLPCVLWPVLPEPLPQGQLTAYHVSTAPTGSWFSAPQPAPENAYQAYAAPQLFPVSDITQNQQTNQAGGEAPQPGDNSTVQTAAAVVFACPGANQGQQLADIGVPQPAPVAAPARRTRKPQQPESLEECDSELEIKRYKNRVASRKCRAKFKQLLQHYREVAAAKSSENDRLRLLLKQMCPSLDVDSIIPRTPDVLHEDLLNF

[5] = molecular target: T2, Epstein-Barr nuclear antigen 1 (Epstein-Barr virus (strain B95-8) (HHV-4) (Human herpesvirus 4), UniProt P03211); experiment: inhibition of EBV nuclear antigen 1 DNA binding – biochemical, fluorescence polarization, 1536-well, dose response (AID 2381); design: species or system human gammaherpesvirus 4;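 also: fluorescence polarization of a Cy5 DNA probe bound by EBNA-1 protein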
T2 sequence (P03211 whole entry): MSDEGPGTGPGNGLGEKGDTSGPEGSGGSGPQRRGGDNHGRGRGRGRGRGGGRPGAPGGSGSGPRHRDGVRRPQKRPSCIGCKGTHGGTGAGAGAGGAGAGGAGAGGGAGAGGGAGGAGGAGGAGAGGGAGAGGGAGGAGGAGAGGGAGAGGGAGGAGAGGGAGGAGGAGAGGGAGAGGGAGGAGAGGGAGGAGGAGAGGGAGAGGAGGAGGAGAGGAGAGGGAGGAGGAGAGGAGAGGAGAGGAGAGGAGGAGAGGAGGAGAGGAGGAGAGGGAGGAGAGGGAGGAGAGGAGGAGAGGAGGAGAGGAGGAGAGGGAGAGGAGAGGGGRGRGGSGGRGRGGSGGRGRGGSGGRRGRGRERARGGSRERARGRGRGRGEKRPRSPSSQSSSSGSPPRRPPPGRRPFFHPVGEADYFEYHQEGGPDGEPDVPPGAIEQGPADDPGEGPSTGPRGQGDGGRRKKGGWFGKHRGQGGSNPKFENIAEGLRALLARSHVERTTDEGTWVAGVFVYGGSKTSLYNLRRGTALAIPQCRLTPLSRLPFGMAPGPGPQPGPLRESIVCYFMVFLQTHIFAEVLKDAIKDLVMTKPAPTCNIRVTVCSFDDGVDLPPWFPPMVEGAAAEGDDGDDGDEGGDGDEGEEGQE

[6] = molecular target: Mitogen-activated protein kinase 10 (Homo sapiens, UniProt P53779); experiment: Dose response biochemical screening assay for inhibitors of c-Jun N-Terminal Kinase 3 (JNK3). [Related pubchem assays: 746 ]
[7] = fluconazole-exposed Candida albicans growth modulators – fluorescence, retest, confirmation (AID 2467); format: functional, cell-based
[8] = NIH-3T3 fibroblast cytotoxicity, dose response, cytotoxicity control, cell-based, fluorescence, Alamar Blue, secondary assay (AID 2327); format: functional;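 also: NIH-3T3 mouse fibroblasts cultured with fluconazole at 8 µg/mL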
INS1 = experiment: INS-1E survival protection against cytokine death – cell-based, luminescence, retest, dose response (AID 449756); format: functional; details: Rattus norvegicus;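 also: cell death triggered by IL-1 beta plus TNF-alpha plus IFN-gamma mixture; protective hits raise ATP signal compared with cytokine alone wells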
[9] = molecular target: T3, Rac GTPase-activating protein 1 (Homo sapiens, UniProt Q9H0H5); experiment: blockers of MgcRacGAP-driven Rac1 GTP hydrolysis – biochemical, ADP Hunter fluorescence, primary and confirmatory, confirmation (AID 624330); format: functional
T3 sequence (Q9H0H5 whole entry): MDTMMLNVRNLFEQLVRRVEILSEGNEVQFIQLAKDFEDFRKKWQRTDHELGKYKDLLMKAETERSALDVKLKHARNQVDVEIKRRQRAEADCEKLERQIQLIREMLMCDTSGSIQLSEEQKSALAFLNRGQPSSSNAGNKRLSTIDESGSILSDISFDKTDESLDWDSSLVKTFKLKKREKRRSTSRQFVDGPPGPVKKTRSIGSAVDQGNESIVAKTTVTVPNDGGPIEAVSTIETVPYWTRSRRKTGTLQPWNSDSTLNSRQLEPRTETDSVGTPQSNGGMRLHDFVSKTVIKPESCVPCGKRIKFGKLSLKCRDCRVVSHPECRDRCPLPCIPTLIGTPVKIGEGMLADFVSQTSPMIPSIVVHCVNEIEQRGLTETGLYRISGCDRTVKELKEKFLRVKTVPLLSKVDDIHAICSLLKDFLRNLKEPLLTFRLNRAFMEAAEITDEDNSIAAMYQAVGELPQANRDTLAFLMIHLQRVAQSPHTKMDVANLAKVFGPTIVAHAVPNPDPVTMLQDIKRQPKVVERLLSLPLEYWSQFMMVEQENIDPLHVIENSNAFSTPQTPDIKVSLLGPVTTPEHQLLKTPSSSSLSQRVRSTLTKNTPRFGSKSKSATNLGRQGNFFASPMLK

[10] = molecular target: T4, Mannose-6-phosphate isomerase (Homo sapiens, UniProt P34949); experiment: MPI inhibition at elevated mannose 6-phosphate – biochemical, fluorescence intensity, high mannose 6-phosphate, primary screen (AID 1220)
T4 sequence (P34949 whole entry): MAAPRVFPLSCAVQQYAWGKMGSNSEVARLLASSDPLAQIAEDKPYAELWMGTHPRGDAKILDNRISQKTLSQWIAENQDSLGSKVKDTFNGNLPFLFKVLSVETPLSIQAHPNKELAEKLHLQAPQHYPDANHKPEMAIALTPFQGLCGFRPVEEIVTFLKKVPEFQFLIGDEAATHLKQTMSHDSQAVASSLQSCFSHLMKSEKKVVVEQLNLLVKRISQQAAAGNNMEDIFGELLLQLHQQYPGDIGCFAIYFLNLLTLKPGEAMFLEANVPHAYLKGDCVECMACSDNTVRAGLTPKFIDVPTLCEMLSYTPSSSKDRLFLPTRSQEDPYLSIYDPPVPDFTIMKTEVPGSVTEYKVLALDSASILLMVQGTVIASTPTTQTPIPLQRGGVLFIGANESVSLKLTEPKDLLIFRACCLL

[11] = HIV-1 AD8 envelope cell-cell fusion blockers – cherry-pick, dose response (AID 652062); format: functional, cell-based;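 also: luciferase signal from cell-cell fusion driven by HIV-1 clade B AD8 Env; potency is for inhibitors of fusion seen as a drop in luminescence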
[12] = molecular target: T5, Short transient receptor potential channel 4 (Mus musculus, UniProt Q9QUQ5); experiment: calcium entry via TRPC4 opening agents – cell-based, HEK293 TRPC4/mu-opioid, Fluo-4 calcium, dose response (AID 434937); format: functional
T5 sequence (Q9QUQ5 whole entry): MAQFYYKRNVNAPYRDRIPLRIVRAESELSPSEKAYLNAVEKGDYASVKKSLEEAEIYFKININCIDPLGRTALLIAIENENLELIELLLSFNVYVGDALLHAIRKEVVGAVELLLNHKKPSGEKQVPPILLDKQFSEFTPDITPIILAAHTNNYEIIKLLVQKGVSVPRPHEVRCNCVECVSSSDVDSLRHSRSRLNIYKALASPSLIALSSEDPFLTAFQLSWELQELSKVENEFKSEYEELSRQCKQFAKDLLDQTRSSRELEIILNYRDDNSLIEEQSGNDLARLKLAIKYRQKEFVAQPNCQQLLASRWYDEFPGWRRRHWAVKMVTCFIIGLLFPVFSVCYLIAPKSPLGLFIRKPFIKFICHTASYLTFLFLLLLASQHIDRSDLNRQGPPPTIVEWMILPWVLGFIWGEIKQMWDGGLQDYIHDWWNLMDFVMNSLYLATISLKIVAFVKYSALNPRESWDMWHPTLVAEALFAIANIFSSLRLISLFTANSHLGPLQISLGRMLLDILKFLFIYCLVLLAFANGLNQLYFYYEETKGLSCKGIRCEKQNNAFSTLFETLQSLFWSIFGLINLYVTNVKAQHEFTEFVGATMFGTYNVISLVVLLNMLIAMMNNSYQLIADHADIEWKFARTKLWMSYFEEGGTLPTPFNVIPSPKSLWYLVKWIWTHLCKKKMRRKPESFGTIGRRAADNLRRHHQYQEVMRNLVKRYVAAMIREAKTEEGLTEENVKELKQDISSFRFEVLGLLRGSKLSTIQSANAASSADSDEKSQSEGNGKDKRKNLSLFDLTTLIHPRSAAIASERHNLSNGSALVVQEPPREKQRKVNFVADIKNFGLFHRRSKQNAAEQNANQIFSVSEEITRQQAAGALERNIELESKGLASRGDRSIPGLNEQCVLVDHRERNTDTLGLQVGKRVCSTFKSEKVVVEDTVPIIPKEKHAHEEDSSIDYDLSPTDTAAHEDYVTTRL

[13] = viability loss in CEM21 cells – cell-based, CellTiter-Glo luminescence, cherry-picked, cytotoxicity control for viral fusion inhibitor project, dose response (AID 652042); format: functional;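 also: potency for signal decrease meaning cytotoxicity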
[14] = blockers of HIV-1 envelope-mediated cell-cell fusion – cherry-pick, dose response (AID 652057); format: functional, cell-based
[15] = blockers of HIV-1 ZM109 envelope-driven cell-cell fusion – HeLa effector, CEM target cells, luciferase, cherry-pick, dose response (AID 652058); format: functional, cell-based;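 also: luciferase signal from HIV-1 Env mediated cell-cell fusion of effector and target cells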
[16] = off-target signal loss in HeLa-CEM21 co-culture – HeLa F-luc CTL cells, cherry-picked, counter-screen for HIV-1 Env fusion inhibitor project, dose response (AID 652040); format: functional, cell-based;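 also: potency for signal decrease marking cytotoxic or nonspecific inhibition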
[17] = viability of uninfected HEp-2 cells – cell-based, HTS, cytotoxicity control for RSV inhibitor project, dose response (AID 2410); format: functional; details: human respiratory syncytial virus
[18] = viability loss in HepG2 hepatoma cells – cell-based, ATP luminescence, cherry-pick, activator set 2, cytotoxicity control, dose response (AID 1053143); format: functional
[19] = Dd2 malaria parasite growth inhibition potency – SYBR Green, dry powder samples, dose response (AID 1159566); format: functional, cell-based;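 also: potency for growth inhibition with lower SYBR green DNA signal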
[20] = growth inhibition of PfATP4-mutant resistant parasites – NITD609-resistant line, SYBR Green, dry powder, dose response (AID 1159571); format: functional, cell-based;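 also: parasites synchronized at ring stage by sorbitol before testing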
[21] = growth inhibition of yeast DHODH-expressing 3D7 parasites – SYBR Green, dry powder samples, dose response (AID 1159570); format: functional, cell-based;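 also: parasite growth measured after 72 hours of compound exposure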
[22] = P. falciparum Dd2 growth inhibitors, dose response, SYBR Green, cherry-picked samples (AID 1159567); format: functional, cell-based
[23] = OVCAR8 cell viability loss – plate reader, dry powder samples, PAX8 project, dose response (AID 743197); format: functional, cell-based; details: OVCAR-8
Paired box protein Pax-8 = Paired box protein Pax-8 (Homo sapiens, UniProt Q06710); experiment: PAX8 transcriptional activity inhibition in RMG-I – RMG-I cells, luciferase, cherry-pick, dose response (AID 687027); format: functional, cell-based;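 also: luciferase reporter driven by Pax8 target thyroperoxidase promoter measured by SteadyGlo luminescence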
Sequence of Paired box protein Pax-8 (Q06710 whole entry): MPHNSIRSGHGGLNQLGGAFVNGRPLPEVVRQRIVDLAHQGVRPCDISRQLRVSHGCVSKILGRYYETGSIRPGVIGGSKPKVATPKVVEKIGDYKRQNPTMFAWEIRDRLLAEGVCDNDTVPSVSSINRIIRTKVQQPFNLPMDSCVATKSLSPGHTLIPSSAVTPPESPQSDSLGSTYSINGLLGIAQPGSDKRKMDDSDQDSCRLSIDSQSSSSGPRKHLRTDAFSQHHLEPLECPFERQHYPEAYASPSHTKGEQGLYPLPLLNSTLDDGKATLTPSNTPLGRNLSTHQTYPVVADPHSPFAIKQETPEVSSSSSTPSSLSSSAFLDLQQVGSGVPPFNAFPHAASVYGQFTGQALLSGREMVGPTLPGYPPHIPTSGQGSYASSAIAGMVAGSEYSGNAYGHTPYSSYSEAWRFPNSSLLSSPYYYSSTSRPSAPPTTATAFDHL

Sequence of Mitogen-activated protein kinase 10 (P53779 whole entry): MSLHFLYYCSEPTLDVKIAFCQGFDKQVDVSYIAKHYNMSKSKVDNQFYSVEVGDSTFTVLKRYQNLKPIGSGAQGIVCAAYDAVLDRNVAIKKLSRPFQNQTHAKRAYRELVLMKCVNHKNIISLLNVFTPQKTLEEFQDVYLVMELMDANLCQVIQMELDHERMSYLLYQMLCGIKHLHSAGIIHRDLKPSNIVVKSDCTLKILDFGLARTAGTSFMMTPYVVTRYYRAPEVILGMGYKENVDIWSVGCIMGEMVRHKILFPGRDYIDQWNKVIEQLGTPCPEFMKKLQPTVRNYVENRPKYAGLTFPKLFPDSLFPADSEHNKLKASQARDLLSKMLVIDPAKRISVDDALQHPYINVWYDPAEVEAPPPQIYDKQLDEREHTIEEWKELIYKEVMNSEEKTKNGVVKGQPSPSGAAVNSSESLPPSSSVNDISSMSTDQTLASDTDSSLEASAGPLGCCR

COc1ccc(/C=C/CN2CCN(Cc3ccccc3)C(CCO)C2)cc1 (configuration not stated)
CC50 [1]: > 40 µM (active)

CCCn1ncc(CN2CCCC(C(=O)c3cccc(OC)c3)C2)c1C (configuration not stated)
EC50 (cells): 16 nM (active)
EC50 [2]: < 100 nM (active)
EC50 [3]: 26.4 µM (active)

COc1ccc(-c2cn3c(C)c(C(=O)NCc4ccc5c(c4)OCO5)sc3n2)cc1
IC50 [4]: > 111 µM (not active)
IC50 [5]: 4.84 µM (active)

O=C1CCCc2nn(-c3ccccc3)c(-c3ccncc3)c21
IC50 [6]: 42.3 µM (not active)

C=CCN1C(=O)c2ccc(C(=O)N3CCN(c4ccccc4OC)CC3)cc2C1=O
CC50 [1]: > 40 µM (active)

CCN1/C(=C/c2cccc[n+]2C)Sc2ccc(OC)cc21
EC50 [7]: 961 nM (active)
EC50 (cells): 84 nM (active)
EC50 [8]: > 150 µM (inactive)
EC50 [2]: < 100 nM (active)
AC50 (INS1): 1.65 µM (active)
EC50 [3]: > 60 µM (not active)

CCOC(=O)c1sc(/N=C/c2c(O)ccc3ccccc23)cc1C
IC50 [9]: 139 µM (active)
IC50 [10]: > 50 µM (not active)

COc1cc(C)c(CNCCc2c[nH]c3ccccc23)cc1C
AC50 [11]: 6.52 µM (active)
EC50 [12]: 2.66 µM (active)
AC50 [13]: 22.9 µM (active)
AC50 [14]: 1.51 µM (active)
AC50 [15]: 482 nM (active)
AC50 [16]: 3.7 µM (active)

COC(=O)c1sccc1NC(=O)CN1CCN(c2ccc(F)cc2)CC1
IC50 [6]: 15.6 µM (not active)
CC50 [17]: 22.2 µM (active)

COc1cc(-c2nc3n(n2)C(c2cccc(OC)c2OC)C2=C(O)CCCC2=N3)cc(OC)c1OC (configuration not stated)
IC50 [4]: > 111 µM (not active)
IC50 [5]: 12.9 µM (not active)

Cc1ccc(NC(=O)CSc2nnc(NC(=O)c3ccc(S(=O)(=O)N4CCOCC4)cc3)s2)cc1
IC50 [4]: > 111 µM (not active)
IC50 [5]: 15.7 µM (not active)

Oc1cc(-c2ccccc2)nc2nc3ccccc3n12
AC50 [18]: 26 µM (active)
IC50 [6]: > 31 µM (not active)

CCOC(=O)c1ccc(Cn2cnc3ccccc3c2=O)cc1
IC50 [6]: 12.3 µM (not active)

COc1ccc2c3c([nH]c2c1)[C@H](CO)N(C(=O)C1CCCCC1)CC31CCN(Cc2nccs2)CC1
AC50 [19]: 183 nM (active)
AC50 [20]: 198 nM (active)
AC50 [21]: 158 nM (active)
AC50 [22]: 833 nM (active)

CN(CCOc1ccc(Br)cc1)CC(O)c1ccccc1 (configuration not stated)
EC50 [12]: 1.33 µM (active)
EC50 (cells): 269 nM (active)
EC50 [2]: < 100 nM (active)
EC50 [3]: > 60 µM (not active)

O=C(C[C@@H]1C[C@@H]2c3cc(NS(=O)(=O)c4ccc(F)cc4)ccc3O[C@@H]2[C@@H](CO)O1)NCc1ccc(-c2ccccc2)cc1
AC50 [23]: > 70 µM (inactive)
AC50 (Paired box protein Pax-8): 4.41 µM (active)

O=[N+]([O-])c1ccc2c(c1NCCO)=NC1(CCCCC1)[N+]=2[O-]
IC50 [10]: > 50 µM (not active)
